{
  "source": "patent US6610535B1",
  "about": "“Progenitor cells and methods and uses related thereto” (ES Cell International Pte Ltd., priority 2000, dated 2003)",
  "type_in_all_cases": "cell-based, rat",
  "key": {"duct monolayer": {"tested_on": "duct monolayer", "test": "Induction of non-adherent cells (NACs, floating progenitor cells) from confluent pancreatic duct monolayer culture"}, "duct cultures": {"tested_on": "duct cultures", "test": "Immunostaining for insulin in duct cultures", "conditions": "FIG. 12; 48 hours in varying secretin doses"}, "NACs": {"tested_on": "NACs", "test": "Calcium imaging (Fluo-3) of glucose-induced calcium current in NACs", "conditions": "Fluo-3, confocal microscopy", "experimental": "Cells were then washed to remove excess dye and placed onto a heated microscope stage (Olympus) and maintained at 32° C. Fluo-3 fluorescence intensity was used as an indicator of intracellular calcium concentration and was measured with a confocal laser-scanning microscope (Olympus). The excitation wavelength was set to 488 nm (argon ion laser) and a 40×water lens was used. The same parameters for laser scanning were set for each experiment, including confocal aperture and laser intensity. The laser scanning was performed as an XYT series with an interval of 10 seconds between each scan in order to resolve glucose-induced changes in intracellular calcium. The imaging files were stored and subsequently analyzed with FLUOVIEW software (Olympus). Cells of interest were circled and the mean intensity of the circled areas was plotted over time."}, "duct spheres": {"tested_on": "duct spheres", "test": "Duct sphere differentiation after growth with added factors, immunohistochemistry", "conditions": "LIF in growth culture medium in addition to six growth factors", "experimental": "Ducts are dissociated into single cells by the dissociation enzyme cocktail containing 1.33 mg/ml Trypsin, 0.7 mg/ml Hyaluronidase, 0.2 mg/ml Kynerenic Acid, and 200 U/ml DNase and plated into sphere culture media (culture media containing 10 ng/ml bFGF, 20 ng/ml EGF, 40 ng/ml HGF, 8 ng/ml TGF α, 30 ng/ml IGF-I and IGF-II, 2% B27 supplements (Gibco/BRL), 8 mM HEMES, 2 mM Glutamine, 100 U/ml penicillin and 100 ug/ml streptomycin in DMEM-F12 medium). After two days in culture, the primary spheres were taken onto HTB-9 matrix in the differentiation media (5% FBS in Iscove Media containing 200 ng/ml PYY and 30 uM Forskolin) for 4 days differentiation. The cells are fixed by 1% PFA followed by IHC analysis."}, "[1]": {"conditions": "factor added to day 5 duct monolayer, 48 hours"}},
  "note": "“Also recorded” adds a separate entry of the source. Like-named read-outs stand apart in the source and are kept apart here. Where no end group is shown, it is not given here.",
  "data": [
    {"molecule": "forskolin [reference compound]", "values": [
      {"measurement": "effect on NAC / floating progenitor cell generation", "setting": "duct monolayer", "result": "can substitute for DCE"},
      {"measurement": "induction of differentiation of duct monolayer", "setting": "duct monolayer", "result": "found to induce differentiation"}
    ]},
    {"molecule": "secretin: secretin", "values": [
      {"measurement": "number of insulin positive cells in the monolayer", "setting": "duct cultures", "result": "increases with secretin dose"},
      {"measurement": "induction of differentiation of duct monolayer", "setting": "duct monolayer; duct monolayer culture", "result": "can induce differentiation"},
      {"measurement": "effect on NAC / floating progenitor cell generation", "setting": "duct monolayer; [1]", "result": "dose dependent increase"}
    ]},
    {"molecule": "CCCC(=O)[O-].[Na+]", "note": "[Na-Butyrate, sodium butyrate, reference compound]", "values": [
      {"measurement": "effect on NAC / floating progenitor cell generation", "setting": "duct monolayer", "result": "can substitute for DCE"},
      {"measurement": "induction of differentiation of duct monolayer", "setting": "duct monolayer", "result": "found to induce differentiation"}
    ]},
    {"molecule": "CCCC(=O)Nc1ncnc2c1ncn2[C@@H]1O[C@@H]2COP(=O)(O)O[C@H]2[C@H]1OC(=O)CCC", "note": "[Dibutyrl cAMP, dibutyryl-cAMP, reference compound]", "values": [
      {"measurement": "induction of differentiation of duct monolayer", "setting": "duct monolayer; duct monolayer culture", "result": "found to induce differentiation"},
      {"measurement": "effect on NAC / floating progenitor cell generation", "setting": "duct monolayer; [1]", "result": "can substitute for DCE"}
    ]},
    {"molecule": "CCCCNC(=O)NS(=O)(=O)c1ccc(C)cc1", "note": "[tolbutamide]", "values": [
      {"measurement": "effect on calcium current in NACs", "setting": "NACs", "result": "activated; also recorded: stimulated a calcium current"}
    ]},
    {"molecule": "VIP: Vasoactive Intestinal Peptide (HSDAVFTDNYTRLRKQMAVKKYLNSILN-NH2; ends and bridges not checked; UniProt P01282 125-152, looked up)", "values": [
      {"measurement": "increase in number of floating progenitor cells versus control", "setting": "duct monolayer; FIG. 13, 50 ng/ml, 48 hours, control 5% FCS", "result": "> 3", "unit": "fold"},
      {"measurement": "optimal dosage for induction of floating progenitor cells", "setting": "duct monolayer; FIG. 13, 48 hours of treatment", "result": 50, "unit": "ng/mL"},
      {"measurement": "effect on NAC / floating progenitor cell generation", "setting": "duct monolayer; [1]", "result": "inducing the appearance of floating progenitor cells"}
    ]},
    {"molecule": "insulin: hormone insulin added to culture", "values": [
      {"measurement": "effect on secretin-induced induction of floating progenitor cells", "setting": "duct monolayer; FIG. 14, insulin 10 ng/ml added simultaneously with secretin 100 nM", "result": "diminished"}
    ]},
    {"molecule": "HGF: hepatocyte growth factor", "values": [
      {"measurement": "effect on NAC / floating progenitor cell generation", "setting": "duct monolayer; [1]", "result": "only slight effects"}
    ]},
    {"molecule": "O=CC[C@@H](O)[C@H](O)[C@H](O)CO", "note": "[2-deoxyglucose]", "values": [
      {"measurement": "effect on calcium current in NACs", "setting": "NACs", "result": "not induced"}
    ]},
    {"molecule": "TGFβ1: growth factor TGFβ1", "values": [
      {"measurement": "effect on NAC / floating progenitor cell generation", "setting": "duct monolayer; [1]", "result": "only slight effects"}
    ]},
    {"molecule": "EGF: epidermal growth factor (NSDSECPLSHDGYCLHDGVCMYIEALDKYACNCVVGYIGERCQYRDLKWWELR; UniProt P01133 971-1023, looked up)", "values": [
      {"measurement": "effect on NAC / floating progenitor cell generation", "setting": "duct monolayer; [1]", "result": "neither dexamethasone nor EGF alone had significant effects"}
    ]},
    {"molecule": "O=C(O)CN(CCOCCOCCN(CC(=O)O)CC(=O)O)CC(=O)O", "note": "[EGTA]", "values": [
      {"measurement": "effect on calcium current in NACs", "setting": "NACs", "result": "inhibited"}
    ]},
    {"molecule": "LIF: leukemia inhibitory factor", "values": [
      {"measurement": "insulin positive cells upon differentiation", "setting": "duct spheres", "result": "many fewer"},
      {"measurement": "relative amount of Somatostatin positive cells upon differentiation", "setting": "duct spheres", "result": "greatly increased"}
    ]},
    {"molecule": "Cholera toxin [reference compound]", "values": [
      {"measurement": "effect on NAC / floating progenitor cell generation", "setting": "duct monolayer", "result": "majority of the activity"},
      {"measurement": "induction of differentiation of duct monolayer", "setting": "duct monolayer", "result": "found to induce differentiation"}
    ]},
    {"molecule": "CC1=NS(=O)(=O)c2cc(Cl)ccc2N1", "note": "[diazoxide]", "values": [
      {"measurement": "effect on calcium current in NACs", "setting": "NACs", "result": "completely inhibited"}
    ]}
  ]
}
